Measurements reported in PMC6000956, “Immunomodulatory activities of pixatimod: emerging nonclinical and clinical data, and its potential utility in combination with PD-1 inhibitors” (Journal for Immunotherapy of Cancer, 2018).
Marks after values point to notes of the source that are not given here.

Legend:
[1] = design: method as in PMID 21285983; conditions: tumor-bearing immunocompetent mice; cited from earlier work
[2] = design: method as in PMID 25754234; conditions: Mouse, 15 mg/kg IV (HED 73 mg); cited from earlier work
beagle dogs = test: 1 month GLP toxicology study, weekly IV infusion; format: in vivo
Method: A 1 month toxicology study of pixatimod in beagle dogs was performed under OECD Good Laboratory Practice (GLP) to assess the toxicity and toxicokinetic profile of pixatimod with 5 intravenous, short term (approximately 1 h) infusions at three defined dose levels of 2.5, 7.5 and 20 mg/kg weekly over 29 days. Blood samples were collected for toxicokinetic investigation to provide information on the systemic exposure. Parameters monitored included mortality and morbidity, clinical signs, food consumption, body weight and body temperature, ophthalmoscopy and electrocardiographic measurements. Laboratory investigations were performed using haematology (ADVIA 120), coagulation (AMAX Density Plus Coagulometer), clinical chemistry (VITROS 950) and urinalysis (URYXXON 300). At the end of the treatment, all animals were euthanized and subjected to a complete necropsy with selected organs weighed and followed by a detailed histopathology evaluation. Bone marrow smears from the femur and sternum were prepared at necropsy, fixed and stained with May-Grünwald and Giemsa stain for analysis. Blood samples obtained during the Phase Ia monotherapy study (PG545102) were collected weekly and the parameters reported herein were analysed by local hospital laboratories.
In the 4T1.2 model, the percentage tumor growth inhibition was determined according to the following formula: 100 × (1-ΔT/ ΔC) where ΔC and ΔT were calculated by subtracting the mean tumor volume in each group on day 1 of treatment from the mean tumor volume on the day of analysis. Statistical analysis was performed using GraphPad Prism, v 6.0 (GraphPad, La Jolla, CA). An ANOVA analysis was performed followed by Dunnett’s post hoc test to compare the tumor growth in the treated groups to the vehicle control. In the dog toxicology study, the analysis was performed using non-parametric Kruskal-Wallis test. The frequency of clinical observations, and necropsy and histopathology findings, was calculated as applicable. For all statistical analyses, statistically significance differences between control and treatment groups was signified by *P < 0.05, **P < 0.01, ***P < 0.001, ****P < 0.0001 versus vehicle control.

4T1.2 cells = test: Syngeneic 4T1.2 breast cancer model, tumor growth; format: in vivo, Balb/c mice; conditions: day 18
Method: (§1) Female Balb/c mice (6–8 weeks) were obtained from the Walter & Eliza Hall Institute (Melbourne, Australia). Animal experiments were performed in accordance with institutional guidelines of the Peter MacCallum Cancer Centre. To determine the utility of pixatimod in combination with a PD-1 checkpoint inhibitor antibody (clone RMP1–14 or isotype control antibody 2A3, Bio-X-Cell, NH, USA), mice were inoculated with 1 × 10^5 4T1.2 cells into the mammary fatpad. One week later, mice with similar sized tumors (mean tumor volume 56 mm^3) were randomised into four groups (n = 6 mice per group): saline + isotype antibody, pixatimod + isotype antibody, saline + anti-PD-1 antibody and pixatimod + anti-PD-1 antibody. Pixatimod was administered at 15 mg/kg IP weekly for 3 weeks (days 1, 8 and 15) and anti-PD-1 or isotype antibody (200 μg) were given IP on days 1, 4, 8, 11 and 15. […]
In the 4T1.2 model, the percentage tumor growth inhibition was determined according to the following formula: 100 × (1-ΔT/ ΔC) where ΔC and ΔT were calculated by subtracting the mean tumor volume in each group on day 1 of treatment from the mean tumor volume on the day of analysis. […] The frequency of clinical observations, and necropsy and histopathology findings, was calculated as applicable. […]

4T1.2 tumors = test: Flow cytometry of immune cells in 4T1.2 tumors and spleens (satellite groups, day 11); format: in vivo, Balb/c mice
Method: as §1, with “15. The experiment was ended on day 18 post treatment initiation (25 days post inoculation) due to emerging toxicities in all treatment groups (e.g. piloerection).” for “15.”
Immune cells from the collagenase (Collagenase IV, Worthington Biochemical Corporation, NJ, USA) processed tumors and spleens were analysed by flow cytometry using an LSR II analyser (BD Biosciences). […]

[3] = High Dose (20 mg/kg), 6 animals examined
[4] = Low Dose (2.5 mg/kg), 6 animals examined
[5] = Mid Dose (7.5 mg/kg), 6 animals examined

Structure (SMILES): CC(C)CCC[C@@H](C)[C@H]1CC[C@H]2[C@@H]3CC[C@H]4C[C@@H](O[C@@H]5O[C@H](COS(=O)(=O)O)[C@@H](O[C@H]6O[C@H](COS(=O)(=O)O)[C@@H](O[C@H]7O[C@H](COS(=O)(=O)O)[C@@H](O[C@H]8O[C@H](COS(=O)(=O)O)[C@@H](OS(=O)(=O)O)[C@H](OS(=O)(=O)O)[C@H]8OS(=O)(=O)O)[C@H](OS(=O)(=O)O)[C@H]7OS(=O)(=O)O)[C@H](OS(=O)(=O)O)[C@H]6OS(=O)(=O)O)[C@H](OS(=O)(=O)O)[C@H]5OS(=O)(=O)O)CC[C@]4(C)[C@H]3CC[C@]12C [pixatimod]
- exposure (AUC) required to achieve efficacy as a monotherapy [1]: 687 µg·h/mL
- AUC0-last Week 1 [2]: 1358 ^c μg.h/mL
- mortality (beagle dogs; 2.5, 7.5 and 20 mg/kg weekly IV over 29 days): no mortality
- Kidney: Cell infiltrate, mixed, perivascular, animals affected (beagle dogs; [3]): 6
- Kidney: Cell infiltrate, mixed, perivascular, mild (beagle dogs; [3]): 4
- Kidney: Cell infiltrate, mixed, perivascular, minimal (beagle dogs; [3]): 1
- Kidney: Cell infiltrate, mixed, perivascular, moderate (beagle dogs; [3]): 1
- Kidney: Dilatation tubular, animals affected (beagle dogs; [3]): 6
- Kidney: Dilatation tubular, by grade (minimal or mild, not resolvable) (beagle dogs; [3]): 6
- Kidney: Sclerosis glomerular, animals affected (beagle dogs; [3]): 3
- Kidney: Sclerosis glomerular, mild (beagle dogs; [3]): 1
- Kidney: Sclerosis glomerular, minimal (beagle dogs; [3]): 2
- Kidney: Vacuolation glomerular, animals affected (beagle dogs; [3]): 4
- Kidney: Vacuolation glomerular, mild (beagle dogs; [3]): 4
- Liver: Cell infiltrate, mixed, diffuse, animals affected (beagle dogs; [3]): 2
- Liver: Cell infiltrate, mixed, diffuse, mild (beagle dogs; [3]): 2
- Liver: Cell infiltrate, mononuclear, multifocal, animals affected (beagle dogs; [3]): 0
- Liver: Hypertrophy hepatocellular, animals affected (beagle dogs; [3]): 6
- Liver: Hypertrophy hepatocellular, mild (beagle dogs; [3]): 5
- Liver: Hypertrophy hepatocellular, minimal (beagle dogs; [3]): 1
- Liver: Hypertrophy, Kupffer cells, animals affected (beagle dogs; [3]): 6
- Liver: Hypertrophy, Kupffer cells, mild (beagle dogs; [3]): 4
- Liver: Hypertrophy, Kupffer cells, minimal (beagle dogs; [3]): 2
- Spleen: Cell infiltrate, mixed cellular, diffuse (minimal), animals affected (beagle dogs; [3]): 4
- Thymus: Lymphoid atrophy, animals affected (beagle dogs; [3]): 2
- Thymus: Lymphoid atrophy, mild (beagle dogs; [3]): 1
- Thymus: Lymphoid atrophy, minimal (beagle dogs; [3]): 1
- Kidney: Cell infiltrate, mixed, perivascular, animals affected (beagle dogs; [4]): 1
- Kidney: Cell infiltrate, mixed, perivascular, minimal (beagle dogs; [4]): 1
- Kidney: Dilatation tubular, animals affected (beagle dogs; [4]): 4
- Kidney: Dilatation tubular, minimal (beagle dogs; [4]): 4
- Kidney: Sclerosis glomerular, animals affected (beagle dogs; [4]): 0
- Kidney: Vacuolation glomerular, animals affected (beagle dogs; [4]): 0
- Liver: Cell infiltrate, mixed, diffuse, animals affected (beagle dogs; [4]): 0
- Liver: Cell infiltrate, mononuclear, multifocal, animals affected (beagle dogs; [4]): 0
- Liver: Hypertrophy hepatocellular, animals affected (beagle dogs; [4]): 5
- Liver: Hypertrophy hepatocellular, mild (beagle dogs; [4]): 3
- Liver: Hypertrophy hepatocellular, minimal (beagle dogs; [4]): 2
- Liver: Hypertrophy, Kupffer cells, animals affected (beagle dogs; [4]): 2
- Liver: Hypertrophy, Kupffer cells, mild (beagle dogs; [4]): 1
- Liver: Hypertrophy, Kupffer cells, minimal (beagle dogs; [4]): 1
- Spleen: Cell infiltrate, mixed cellular, diffuse (minimal), animals affected (beagle dogs; [4]): 0
- Kidney: Cell infiltrate, mixed, perivascular, animals affected (beagle dogs; [5]): 5
- Kidney: Cell infiltrate, mixed, perivascular, mild (beagle dogs; [5]): 1
- Kidney: Cell infiltrate, mixed, perivascular, minimal (beagle dogs; [5]): 4
- Kidney: Dilatation tubular, animals affected (beagle dogs; [5]): 6
- Kidney: Dilatation tubular, mild (beagle dogs; [5]): 1
- Kidney: Dilatation tubular, minimal (beagle dogs; [5]): 5
- Kidney: Sclerosis glomerular, animals affected (beagle dogs; [5]): 0
- Kidney: Vacuolation glomerular, animals affected (beagle dogs; [5]): 0
- Liver: Cell infiltrate, mixed, diffuse, animals affected (beagle dogs; [5]): 0
- Liver: Cell infiltrate, mononuclear, multifocal, animals affected (beagle dogs; [5]): 0
- Liver: Hypertrophy hepatocellular, animals affected (beagle dogs; [5]): 6
- Liver: Hypertrophy hepatocellular, mild (beagle dogs; [5]): 5
- Liver: Hypertrophy hepatocellular, minimal (beagle dogs; [5]): 1
- Liver: Hypertrophy, Kupffer cells, animals affected (beagle dogs; [5]): 6
- Liver: Hypertrophy, Kupffer cells, mild (beagle dogs; [5]): 2
- Liver: Hypertrophy, Kupffer cells, minimal (beagle dogs; [5]): 4
- Spleen: Cell infiltrate, mixed cellular, diffuse (minimal), animals affected (beagle dogs; [5]): 2
- AST (beagle dogs; after 5 weekly IV doses): significant changes
- large unstained cells (LUCs) (beagle dogs; blood, following exposure): significant increases
- bone marrow smears (beagle dogs; femur and sternum at necropsy): No treatment-related changes
- body temperature (beagle dogs; following the first dose, dissipated upon repeat dosing by day 30): significant elevations
- absolute WBC counts and main subsets (lymphocytes, neutrophils and monocytes) (beagle dogs; weekly IV dosing): remained within normal ranges
- relative weight of kidneys (beagle dogs; weekly IV x5): significantly increased
- relative weight of liver (beagle dogs; weekly IV x5): significantly increased
- spleen weight (beagle dogs; weekly IV x5): no effect
- thymus weights (beagle dogs; weekly IV x5): modest but dose-dependent decreases
- Tumor growth compared to the vehicle plus isotype antibody (Control) group (4T1.2 cells): significantly inhibited
- tumor growth inhibition (%TGI) (4T1.2 cells; pixatimod 15 mg/kg IP weekly x3, antibody 200 μg IP twice weekly): 68%
- abundance of CD4+ or CD8+ T cells or NK cells in the spleens compared to control mice (4T1.2 tumors; day 11, spleens): little or no increase
- intratumoral NK cells (4T1.2 tumors; pixatimod alone, 4T1.2 tumors): didn’t significantly increase
